Laboratory results from the NIST ThermoML archive (doi:10.1016/j.fluid.2016.12.025).

Tests used:
[1] = 298.2 K; 101.33 kPa; Liquid; Vibrating tube method
[2] = refractive index (Na D-line) (dimensionless); conditions: 298.2 K; 101.33 kPa; Liquid; Standard Abbe refractometry
[3] = xn = mol fraction of the nth substance listed; conditions: 298.2 K, 101 kPa, Liquid, Vibrating tube method
[4] = refractive index (Na D-line) (dimensionless); xn = mol fraction of the nth substance listed; conditions: 298.2 K, 101 kPa, Liquid, Standard Abbe refractometry

CC(C)CCO [3-methylbutan-1-ol]
Conditions | mass density [kg/m3] | refractive index
[1] | 808.94 | –
[2] | – | 1.4061

CC(C)CCO [3-methylbutan-1-ol] + CCCCCCO
Conditions | mass density, [3] [kg/m3] | refractive index, [4]
x1 = 0.0496 | 815.43 | 1.4154
x1 = 0.0997 | 815.12 | 1.4149
x1 = 0.2005 | 814.49 | 1.414
x1 = 0.3003 | 813.86 | 1.4131
x1 = 0.3986 | 813.22 | 1.4121
x1 = 0.4998 | 812.55 | 1.4111
x1 = 0.6001 | 811.87 | 1.4101
x1 = 0.7002 | 811.17 | 1.4091
x1 = 0.8 | 810.46 | 1.4081
x1 = 0.8998 | 809.73 | 1.4069
x1 = 0.9504 | 809.35 | 1.4064

CC(C)CCO [3-methylbutan-1-ol] + CCCCO
Conditions | mass density, [3] [kg/m3] | refractive index, [4]
x2 = 0.0498 | 808.87 | 1.4056
x2 = 0.0999 | 808.78 | 1.4053
x2 = 0.1999 | 808.58 | 1.4045
x2 = 0.3 | 808.35 | 1.4037
x2 = 0.4 | 808.09 | 1.4029
x2 = 0.4999 | 807.81 | 1.402
x2 = 0.6016 | 807.5 | 1.4009
x2 = 0.7015 | 807.16 | 1.3998
x2 = 0.7999 | 806.8 | 1.3988
x2 = 0.9007 | 806.41 | 1.3981
x2 = 0.9506 | 806.21 | 1.3978

CC(C)CCO [3-methylbutan-1-ol] + CCCCOC(C)=O
Conditions | mass density, [3] [kg/m3] | refractive index, [4]
x2 = 0.0497 | 812.53 | 1.4049
x2 = 0.104 | 816.52 | 1.4039
x2 = 0.1998 | 823.52 | 1.4021
x2 = 0.2999 | 830.68 | 1.4005
x2 = 0.3999 | 837.66 | 1.399
x2 = 0.5001 | 844.46 | 1.3976
x2 = 0.6006 | 851.08 | 1.3962
x2 = 0.7 | 857.56 | 1.395
x2 = 0.8003 | 863.93 | 1.3939
x2 = 0.9005 | 870.23 | 1.3928
x2 = 0.9466 | 873.08 | 1.3923

CCCCO [butan-1-ol]
Conditions | mass density [kg/m3] | refractive index
[1] | 806.01 | –
[2] | – | 1.3973

CCCCOC(C)=O [butyl ethanoate]
Conditions | mass density [kg/m3] | refractive index
[1] | 876.26 | –
[2] | – | 1.3918

CCCCOC(C)=O [butyl ethanoate] + CCCCCCO
Conditions | mass density, [3] [kg/m3] | refractive index, [4]
x1 = 0.0503 | 818.79 | 1.4144
x1 = 0.1001 | 821.75 | 1.4131
x1 = 0.2012 | 827.7 | 1.4104
x1 = 0.3007 | 833.61 | 1.4078
x1 = 0.4001 | 839.54 | 1.4053
x1 = 0.4999 | 845.54 | 1.4029
x1 = 0.6004 | 851.63 | 1.4005
x1 = 0.6991 | 857.64 | 1.3982
x1 = 0.8003 | 863.85 | 1.396
x1 = 0.8953 | 869.76 | 1.3939
x1 = 0.9452 | 872.86 | 1.3929

CCCCCCO [hexan-1-ol]
Conditions | mass density [kg/m3] | refractive index
[1] | 815.88 | –
[2] | – | 1.4161

CCCCCCO [hexan-1-ol] + CCCCO
Conditions | mass density, [3] [kg/m3] | refractive index, [4]
x2 = 0.0543 | 815.53 | 1.4148
x2 = 0.099 | 815.22 | 1.4142
x2 = 0.2042 | 814.42 | 1.4126
x2 = 0.2993 | 813.64 | 1.4111
x2 = 0.4052 | 812.7 | 1.4094
x2 = 0.4994 | 811.8 | 1.4078
x2 = 0.5938 | 810.85 | 1.406
x2 = 0.7005 | 809.72 | 1.4038
x2 = 0.8004 | 808.58 | 1.4017
x2 = 0.9003 | 807.35 | 1.3997
x2 = 0.9499 | 806.7 | 1.3985
